The text below walks through data of ChEMBL document CHEMBL1201862, “PubChem BioAssay data set” (2004).

Assay [1] in a line: inhibitors acting on PAX2 in cells – cell-based, plate reader, dry powder samples, selectivity assay for PAX8 inhibitor project, dose response (AID 743048).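 Further: HEK293 cells carrying a WT1 promoter luciferase reporter driven by expressed Pax2; potency is for inhibition of Pax2 driven reporter signal.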 The format is functional.
The subject of another assay is Streptococcus. The assay can be described thus: GAS UMAA2166 growth inhibition – luminescence, BacTiterGlo, counter-screen for streptokinase expression inhibitor project, dose response (AID 1915).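 Further: potency for reduction of bacterial viability or growth.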 The format is functional, organism-based. For orientation: The purpose of a counterscreen is to sort out artefacts and off-target activity.
Assay [2] can be described thus: OV-90 cell viability loss – plate reader, dry powder, SA8, PAX8 inhibitor project, dose response (AID 743149). The format is functional, cell-based.
The test system of assay [3] is BJ. In words: cells. The format is functional, cell-based. To be noted: Homo sapiens.
The test system of the next assay is Jurkat. The assay can be described thus: SAR Analysis of small molecule inhibitors of both B-cell and T-cell specific antigen receptor-induced NF-kB activation in a Jurkat cell line using a luminescence assay. [Related pubchem assays (depositor defined):AID435003, AID435022, AID465, AID489029]. The assay is classed as functional, cell-based. The following applies: Homo sapiens.

Assay [4] relates to HEK293. The assay can be described thus: HEK293T cell viability loss, resazurin readout – resazurin fluorescence, cytotoxicity control for NF-kB activator project, SAR follow-up (AID 493251). The format is functional, cell-based. To be noted: Homo sapiens. In general terms: The colour change of resazurin is a common sign of viable cells or microbes.
The test system of assay [5] is BJ. In words: BJ-TERT-LT-ST fibroblast viability loss – cell-based, RAS-independent, luminescence, dose response (AID 1935).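 Further: BJ fibroblasts immortalized with TERT plus LT and ST oncogenes.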 The format is functional. The following applies: Homo sapiens.
A short description of assay [6]: A2780 cell killing – plate reader, dry powder samples, cytotoxicity control, dose response (AID 743046). The assay is classed as functional, cell-based.
Assay [7] can be described thus: Luminescence-based dose response cell-based high throughput screening assay for cytotoxic compounds using the IEC-6 intestinal epithelial cell line. [Related pubchem assays: 1858 (Summary AID.), 1825 (Counterscreen.), 1907 (Confirmation screen.)]. The format is functional.
A further assay has as its target Beta-galactosidase (Escherichia coli, UniProt Q8VNN2). In words: PubChem AID 485352. The assay is classed as functional.
Assay [8] is described as follows: COV362 cell viability loss – plate reader, dry powder, SA12, cytotoxicity control for PAX8 inhibitor project, dose response (AID 743144). The assay is classed as functional, cell-based.
The next assay concerns the target Paired box protein Pax-8 (Homo sapiens, UniProt Q06710). In words: PAX8 transcriptional activity inhibition in RMG-I – RMG-I cells, luciferase, cherry-pick, dose response (AID 687027).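 Further: luciferase reporter driven by Pax8 target thyroperoxidase promoter measured by SteadyGlo luminescence.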 The assay is classed as functional, cell-based.
The subject of assay [9] is HEK293. The assay can be described thus: SAR Analysis of small molecule inhibitors of both B-cell and T-cell specific antigen receptor-induced NF-kB activation in a HEK-293T cell line using a luminescence assay. [Related pubchem assays (depositor defined):AID435003, AID435022, AID465, AID489019, AID489029]. The assay is classed as functional, cell-based. The following applies: Homo sapiens.

In assay [10] the test system is BJ. The assay can be described thus: BJ-TERT fibroblast viability loss – cell-based, RAS-independent, luminescence, dose response (AID 1933). The assay is classed as functional. To be noted: Homo sapiens.
Assay [11] has as its target T1, Type-1 angiotensin II receptor (Homo sapiens, UniProt P30556).
T1 sequence (P30556 whole entry): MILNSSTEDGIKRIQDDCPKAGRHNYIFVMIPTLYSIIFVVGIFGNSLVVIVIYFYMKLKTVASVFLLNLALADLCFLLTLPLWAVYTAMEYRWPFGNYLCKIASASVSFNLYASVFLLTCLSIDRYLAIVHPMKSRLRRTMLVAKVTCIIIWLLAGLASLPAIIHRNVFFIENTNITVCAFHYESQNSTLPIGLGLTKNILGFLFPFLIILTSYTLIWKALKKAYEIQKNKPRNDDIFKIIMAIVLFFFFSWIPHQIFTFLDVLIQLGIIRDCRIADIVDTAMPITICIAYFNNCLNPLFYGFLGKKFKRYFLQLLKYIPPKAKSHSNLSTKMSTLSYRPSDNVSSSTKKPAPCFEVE
The assay can be described thus: antagonism of angiotensin II type 1 receptor – cell-based, uHTS hits, selectivity assay for APJ receptor antagonist project, dose response (AID 463214).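 Further: antagonist potency against angiotensin II stimulated AT1 response.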 The format is functional.

In a further assay the target is T2, Streptokinase A (Streptococcus pyogenes serotype M1, UniProt P10520).
T2 sequence (P10520 whole entry): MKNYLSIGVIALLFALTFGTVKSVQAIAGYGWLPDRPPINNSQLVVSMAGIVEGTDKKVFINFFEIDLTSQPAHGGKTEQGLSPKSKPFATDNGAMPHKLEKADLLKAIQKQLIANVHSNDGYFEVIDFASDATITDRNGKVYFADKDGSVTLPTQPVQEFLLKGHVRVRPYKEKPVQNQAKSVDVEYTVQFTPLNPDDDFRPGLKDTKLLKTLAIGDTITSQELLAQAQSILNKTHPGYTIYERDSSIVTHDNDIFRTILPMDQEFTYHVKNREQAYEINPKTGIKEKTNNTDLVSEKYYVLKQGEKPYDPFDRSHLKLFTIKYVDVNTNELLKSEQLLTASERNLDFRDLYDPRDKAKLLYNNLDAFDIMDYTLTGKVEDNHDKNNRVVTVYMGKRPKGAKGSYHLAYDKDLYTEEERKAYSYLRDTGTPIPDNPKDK
In words: viability-normalized secreted streptokinase activity reduction – plasminogen activation absorbance, OD405, dose response (AID 1914).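 Further: secreted streptokinase activity via plasminogen activation per viability signal from cell pellet.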 The format is functional, Streptococcus pyogenes M1 GAS.

Assay [12] is described as follows: general cell-killing toxicity readout – plate reader, dry powder samples, cytotoxicity control for PAX8 inhibitor project, dose response (AID 743021). The format is functional, cell-based.
Assay [13] in a line: OVCAR4 cell viability loss – plate reader, dry powder, SA11, cytotoxicity control for PAX8 inhibitor project, dose response (AID 743150). The assay is classed as functional, cell-based. The following applies: OVCAR-4.
The test system of assay [14] is Streptococcus sp. 'group A'. The assay can be described thus: Streptococcus pyogenes SK(-)GAS viability under kanamycin – luminescence, BacTiterGlo, confirmation, counter-screen for streptokinase expression inhibitor project, dose response (AID 1900). The format is functional, organism-based.
Assay [15] is described as follows: DRD fibroblast viability loss – cell-based, non-viral oncogenic, luminescence, dose response (AID 1934). The format is functional. To be noted: Homo sapiens.
For assay [16], the system named is BJ. The assay can be described thus: growth inhibition of engineered Ras-driven BJ cells – cell-based, alamar blue fluorescence, cherrypicked samples, dose response (AID 2631).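 Further: confirmatory dose-response assay in RAS-dependent BJ fibroblasts engineered with TERT, LT and ST, with cytotoxicity read by fluorescence.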 The format is functional. To be noted: Homo sapiens.
A short description of assay [17]: toxicity toward immortalized ovarian surface epithelium – cell-based, plate reader, dry powder samples, cytotoxicity control for PAX8 inhibitor project, dose response (AID 743045). The assay is classed as functional.
A short description of assay [18]: HEK-293T viability loss after treatment – luminescence, T-cell screen hits, cytotoxicity control for TCR NF-kB inhibitor project, dose response (AID 489026).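 Further: cells exposed to compound about 14 hours before the viability readout.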 The assay is classed as functional, cell-based.
Assay [19] in a line: COV434 cell viability loss – plate reader, dry powder, SA7, cytotoxicity control for PAX8 inhibitor project, dose response (AID 743145). The assay is classed as functional, cell-based.
The nature of assay [20]: IGROV1 cell killing – plate reader, dry powder samples, PAX8 inhibitor project, dose response (AID 743043). The assay is classed as functional, cell-based. The following applies: IGROV-1.
Assay [21] can be described thus: PAX8-dependent cell viability loss – plate reader, dry powder, dose response (AID 743049). The format is functional, cell-based.
Another assay concerns the target DNA topoisomerase (Yersinia pestis, UniProt A0A2S9PM60). In words: Yersinia topoisomerase I cleavage product accumulation – biochemical, cherry-pick, dose response (AID 588525).
Assay [22] is described as follows: NIH3T3 cell viability loss – ATP luminescence, mouse fibroblasts, counter-screen, dose response (AID 2010).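 Further: cells exposed to compound for about 90 hours before reading.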 The assay is classed as functional, cell-based.
A short description of assay [23]: Luminescence Cell-Based Dose Response HTS to Identify Inhibitors of 5'UTR Stem-Loop Driven Prion Protein mRNA Translation in H4 Neuroglioblastoma Cells. [Related pubchem assays: 1827 (Project Summary), 1813 (Primary HTS)]. The assay is classed as functional.
Assay [24] can be described thus: alpha-synuclein stem-loop luciferase translation blockers – H4 neuroglioma cells, luminescence, confirmation (AID 1988). The assay is classed as functional, cell-based.
A short description of assay [25]: luciferase reporter signal suppression in cells – H4 neuroglioma cells, luminescence, dose response (AID 1990). The assay is classed as functional, cell-based. In general terms: Reporter assays use an easily measured gene product as a stand-in for the process of interest.
Assay [26] in a line: Trypanosoma cruzi growth suppression in host cells – NIH3T3 host cells, beta-gal luminescence, confirmation (AID 2044).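 Further: intracellular parasites grown in NIH/3T3 mouse fibroblasts as host cells; luminescent beta-galactosidase reporter signal from transgenic T. cruzi replicating inside host cells; inhibitors lower the luminescence signal.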 The format is functional, cell-based.
Assay [27] has as its target CAAX prenyl protease 2 (Homo sapiens, UniProt Q9Y256). In words: inhibition of Ras-converting CAAX endoprotease – biochemical, plate reader, dry powder samples, dose response (AID 588848).
Assay [28] addresses T3, CAAX prenyl protease 2 (Saccharomyces cerevisiae S288c, UniProt Q03530).
T3 sequence (Q03530 whole entry): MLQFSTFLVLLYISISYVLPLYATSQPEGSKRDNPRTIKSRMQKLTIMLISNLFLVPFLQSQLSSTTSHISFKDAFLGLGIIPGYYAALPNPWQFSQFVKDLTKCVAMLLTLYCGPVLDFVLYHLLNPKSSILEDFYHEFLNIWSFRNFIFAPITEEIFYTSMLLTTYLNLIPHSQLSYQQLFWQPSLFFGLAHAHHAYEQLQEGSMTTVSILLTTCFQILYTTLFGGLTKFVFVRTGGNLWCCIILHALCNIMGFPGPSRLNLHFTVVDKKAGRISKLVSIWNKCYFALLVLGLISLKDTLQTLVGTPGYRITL
The format is biochemical.

Assay [29] deals with T3, CAAX prenyl protease 2. The assay can be described thus: inhibition of Rce1p peptide cleavage – biochemical, plate reader, dry powder retest, dose response (AID 588851).
Assay [30] is described as follows: THP-1 cell cytotoxicity, cytotoxicity control, set 6 (AID 602433). The format is functional. The following applies: Mycobacterium tuberculosis.

Activity calls are given as the source filed them.

Chain of Beta-galactosidase (Q8VNN2 whole entry): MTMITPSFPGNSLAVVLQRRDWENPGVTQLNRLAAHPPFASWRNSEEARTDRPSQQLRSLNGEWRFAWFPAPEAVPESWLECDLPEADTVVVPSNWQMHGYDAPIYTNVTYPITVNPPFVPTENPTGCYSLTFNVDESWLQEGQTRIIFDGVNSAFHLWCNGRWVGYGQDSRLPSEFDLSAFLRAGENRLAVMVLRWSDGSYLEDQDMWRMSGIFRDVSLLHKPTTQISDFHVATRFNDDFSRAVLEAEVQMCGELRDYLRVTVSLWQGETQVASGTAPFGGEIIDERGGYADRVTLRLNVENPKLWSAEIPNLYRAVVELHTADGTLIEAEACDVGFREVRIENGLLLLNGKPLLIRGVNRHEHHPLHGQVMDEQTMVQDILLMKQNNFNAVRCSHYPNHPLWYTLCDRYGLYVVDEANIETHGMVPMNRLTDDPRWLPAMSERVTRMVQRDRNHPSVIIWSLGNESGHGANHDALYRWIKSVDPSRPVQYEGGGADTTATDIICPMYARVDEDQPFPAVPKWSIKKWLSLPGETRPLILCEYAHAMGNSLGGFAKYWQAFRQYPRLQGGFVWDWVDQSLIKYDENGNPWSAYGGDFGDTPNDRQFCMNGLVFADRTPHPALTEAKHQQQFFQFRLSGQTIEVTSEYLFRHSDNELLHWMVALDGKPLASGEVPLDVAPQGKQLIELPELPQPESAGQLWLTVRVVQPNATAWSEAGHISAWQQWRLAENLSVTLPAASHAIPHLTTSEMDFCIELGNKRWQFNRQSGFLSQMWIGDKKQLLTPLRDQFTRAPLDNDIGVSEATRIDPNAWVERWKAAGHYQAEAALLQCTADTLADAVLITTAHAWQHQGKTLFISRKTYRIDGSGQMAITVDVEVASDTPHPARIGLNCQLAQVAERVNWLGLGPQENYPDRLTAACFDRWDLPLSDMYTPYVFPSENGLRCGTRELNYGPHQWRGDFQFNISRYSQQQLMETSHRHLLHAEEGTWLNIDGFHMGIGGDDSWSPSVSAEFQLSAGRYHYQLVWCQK
Chain of CAAX prenyl protease 2 (Homo sapiens, UniProt Q9Y256) (Q9Y256 whole entry): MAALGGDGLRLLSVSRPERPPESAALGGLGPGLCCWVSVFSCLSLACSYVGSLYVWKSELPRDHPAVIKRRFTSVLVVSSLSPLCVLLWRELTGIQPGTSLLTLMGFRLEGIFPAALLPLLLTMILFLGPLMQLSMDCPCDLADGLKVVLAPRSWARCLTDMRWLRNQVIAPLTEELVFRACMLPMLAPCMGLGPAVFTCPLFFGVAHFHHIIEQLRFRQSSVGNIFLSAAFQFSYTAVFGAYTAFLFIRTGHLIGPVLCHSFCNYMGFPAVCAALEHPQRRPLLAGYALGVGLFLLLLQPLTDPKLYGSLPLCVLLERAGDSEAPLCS
Chain of DNA topoisomerase (A0A2S9PM60 whole entry): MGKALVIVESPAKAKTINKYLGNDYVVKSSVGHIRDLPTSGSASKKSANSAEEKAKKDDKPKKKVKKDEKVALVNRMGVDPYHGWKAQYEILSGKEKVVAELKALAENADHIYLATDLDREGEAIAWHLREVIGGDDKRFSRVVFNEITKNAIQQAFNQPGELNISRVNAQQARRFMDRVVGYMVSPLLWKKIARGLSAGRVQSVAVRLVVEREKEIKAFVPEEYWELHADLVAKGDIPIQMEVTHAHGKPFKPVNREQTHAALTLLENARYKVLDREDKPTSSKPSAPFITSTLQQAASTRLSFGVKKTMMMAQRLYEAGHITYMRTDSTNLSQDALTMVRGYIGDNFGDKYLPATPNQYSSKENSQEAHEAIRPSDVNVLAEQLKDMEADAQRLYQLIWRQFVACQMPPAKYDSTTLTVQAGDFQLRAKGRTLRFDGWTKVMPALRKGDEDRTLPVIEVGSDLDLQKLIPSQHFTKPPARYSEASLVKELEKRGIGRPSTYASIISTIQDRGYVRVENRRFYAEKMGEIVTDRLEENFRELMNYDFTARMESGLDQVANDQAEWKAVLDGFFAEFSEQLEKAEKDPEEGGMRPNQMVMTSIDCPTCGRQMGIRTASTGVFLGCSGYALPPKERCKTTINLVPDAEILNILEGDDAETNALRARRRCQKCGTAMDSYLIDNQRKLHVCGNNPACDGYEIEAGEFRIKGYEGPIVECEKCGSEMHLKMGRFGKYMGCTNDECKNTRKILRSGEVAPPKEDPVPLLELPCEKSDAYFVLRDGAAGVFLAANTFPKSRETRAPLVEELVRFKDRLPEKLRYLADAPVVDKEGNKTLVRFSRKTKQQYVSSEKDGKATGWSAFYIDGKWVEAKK
Chain of Paired box protein Pax-8 (Q06710 whole entry): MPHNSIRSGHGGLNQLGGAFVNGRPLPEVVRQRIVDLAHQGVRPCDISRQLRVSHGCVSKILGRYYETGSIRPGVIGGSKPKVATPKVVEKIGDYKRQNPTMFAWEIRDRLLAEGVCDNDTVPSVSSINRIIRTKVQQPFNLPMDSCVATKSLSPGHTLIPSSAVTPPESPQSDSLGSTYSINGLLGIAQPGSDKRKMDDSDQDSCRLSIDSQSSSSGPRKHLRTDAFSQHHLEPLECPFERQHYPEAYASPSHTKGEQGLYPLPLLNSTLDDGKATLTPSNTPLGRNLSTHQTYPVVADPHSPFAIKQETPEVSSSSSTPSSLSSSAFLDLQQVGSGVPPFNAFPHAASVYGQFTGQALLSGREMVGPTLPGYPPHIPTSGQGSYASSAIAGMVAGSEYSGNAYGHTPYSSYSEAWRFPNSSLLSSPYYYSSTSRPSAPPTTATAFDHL

For orientation: AC50 means the midpoint of the concentration-response curve, whichever way the signal moves. As usually defined, the EC50 is the midpoint of the concentration-response curve. A word on the IC50: it is the concentration at which inhibition is half-maximal. Regarding `Cc1ccc2cccc(NS(=O)(=O)c3ccccc3)c2n1`, the AC50 is 49.5 µM (active) in [1]; 5.65 µM (active) in assay [2]; 20.5 µM (active) in [6]; 8.75 µM (active) in assay [8]; 5.74 µM (active) at Paired box protein Pax-8; 44 µM (active) in [12]. Also, the AC50 is 21.1 µM (active) in assay [13]; 17.3 µM (active) in assay [17]; 10.7 µM (active) in assay [19]; 14 µM (active) in assay [20]; 15.6 µM (active) in [21]. Also, the EC50 in the assay on Streptococcus is > 150 µM (not active); in the assay on BJ [3] it was 17.8 µM (active); in the assay with BJ [5], > 150 µM (not active); on Beta-galactosidase, > 40 µM (inactive); in the assay with BJ [10], 37.9 µM (active); at Streptokinase A, > 150 µM (not active). Further, the values for the EC50 (in assay [14]; in assay [15]; in the assay on BJ [16]) were 5.1 µM (active), 21.6 µM (active) and 5.74 µM (active), respectively. The 50% inhibitory concentration (IC50) in the assay on Jurkat is 1.21 µM (active); in the assay with HEK293 [4] it was > 80 µM (inactive); in [7], 0.589 µM (active); in the assay on HEK293 [9], > 79 µM (inactive); in assay [11] it was 2.35 µM (active); in [18] it was > 80 µM (inactive).

`O=C(CSc1nnc(COc2ccc(Cl)cc2)o1)N1c2ccccc2CCc2ccccc21`: on DNA topoisomerase, the AC50 is 10.2 µM (active). Besides, the EC50 was < 6 µM (inconclusive) in [22]; 21.5 µM (active) in assay [23]; 15.2 µM (active) in [24]; 23.5 µM (active) in [25]; 0.625 µM (active) in [26].

Consider `CC(C)c1c(C(=O)N/N=C/c2c[nH]c3ccccc23)nnn1-c1nonc1N`, for which the AC50 at CAAX prenyl protease 2 [27] was 29.3 µM (active); on CAAX prenyl protease 2 [28] it was 0.298 µM (active); at CAAX prenyl protease 2 [29], 3.14 µM (active).

In general, CC50 refers to the concentration that lowers cell viability or growth by half. As to `O=C(CSc1nc2ccccc2c(=O)[nH]1)NC1CCOCC1`, in assay [30], the 50% cytotoxic concentration (CC50) is > 100 µM (inconclusive).
